{
  "source": "patent US20220339135A1",
  "about": "“COMPOSITIONS AND METHODS FOR MODULATING AN INFLAMMATORY RESPONSE” (Enzychem Lifesciences Corporation, priority 2019, published 2022)",
  "key": {"[1]": {"tested_on": "intracellular calcium in dHL-60 cells", "assay": "Fluo-4 calcium assay", "type": "cell-based, human", "description": "Human leukemia line (HL-60) cells were differentiated (dHL-60) to neutrophil-like cells in the culture medium with the addition of 1.3% DMSO (Sigma) for 5 days in a humidified atmosphere at 37° C. without changing the medium. dHL-60 cells (2×10^5 cells/mL) were loaded with 5 μM fluo-4 AM for 45 minutes and washed three times with warmed modified (37° C.) HBSS buffer (137.93 mM NaCl, 5.33 mM KCl, 2 mM CaCl2), 1 mM MgSO4, 2.38 mM HEPES, 5.5 mM glucose, pH to 7.4). The cells were seeded on black-walled 96-well plates and then treated with vehicle (0.1% DMSO), ionomycin (5 μM; positive control) or PLAG (100 μg/mL) just before measurement. Baseline fluorescence was measured before treatment, and fluorescence was read every 20 s for 700 s using an excitation wavelength of 494 nm, an emission wavelength of 516 nm in a FlexStation 3 microplate reader (Molecular Devices). Fluorescence values were reported as F/Fo according to the calculation: [ΔF=(494 nm)f/(516 nm)f−(494 nm)0/(516 nm)0]. For studies in 0 mM external calcium, the cells were loaded as mentioned earlier. After being loaded, the cells were washed four times with calcium-free HBSS. The remainder of the study was carried out in calcium-free HBSS.\n(§1) HL-60 cells were differentiated (dHL-60) to neutrophil-like cells in the culture medium with the addition of 1.3% DMSO (Sigma) for 5 days in a humidified atmosphere at 37° C. without changing the medium. dHL-60 cells (2×10^5 cells/mL) were loaded with 5 μM fluo-4 AM for 45 minutes and washed three times with warmed modified (37° C.) HBSS buffer (137.93 mM NaCl, 5.33 mM KCl, 2 mM CaCl2, 1 mM MgSO4, 2.38 mM HEPES, 5.5 mM glucose, pH to 7.4). […] Baseline fluorescence was measured before treatment, and fluorescence was read every 20 seconds for 700 seconds using an excitation wavelength of 494 nm, an emission wavelength of 516 nm in a FlexStation 3 microplate reader (Molecular Devices). Fluorescence values were reported as F/Fo according to the calculation: [ΔF=(494 nm)f/(516 nm)f−(494 nm)0/(516 nm)0]. […]\nas §1, with “s” for “seconds”, “Devices).” for “Devices). Fluorescence values were reported as F/Fo according to the calculation: [ΔF=(494 nm)f/(516 nm)f−(494 nm)0/(516 nm)0].”"}, "[2]": {"tested_on": "RIPK1, RIPK3, MLKL in THP-1 cells", "assay": "MSU-induced phosphorylation of RIPK1, RIPK3, MLKL, western blot", "type": "cell-based, human", "description": "(A) THP-1 cells were pre-incubated with PLAG (100 μg/mL) for an hour and then stimulated with MSU crystal (400 μg/mL). After 0, 7, 15, 30, 60 minutes, cells were harvested. (B) THP-1 cells were pre-incubated with PLAG (1, 10, 100 μg/mL) for 1 hour and then stimulated with MSU crystal (400 μg/mL). After 1 h, cells were harvested. THP-1 cells were lysis with 1×RIPA lysis buffer containing the protease inhibitor (Roche, Basel, Switzerland) and phosphatase inhibitor (Thermo Scientific, MA, USA) on ice for 30 min. The cell lysates were clarified by centrifugation (13,000 rpm, 4° C., 30 min), and the protein quantity from each sample was examined by Bradford assay (Bio-Rad). Proteins from each sample were separated by sodium dodecyl sulfate-polyacrylamide gel electrophoresis on 12% polyacrylamide gels and the proteins were blotted onto a PVDF membrane (Millipore Corporation, Germany). The membrane was blocked with 5% non-fat dried milk (BD bioscience) in PBS containing 0.05% Tween-20 (Calbiochem) for 1 hour. The membrane was incubated with anti-phospho-RIPK3 (abcam), RIPK3 (novusbio), p-MLKL (abcam), MLKL (Sigma), p-RIP (Cell Signaling Technology), RIPK1 (R&D System) and β-actin (Cell Signaling Technology) at 4° C. overnight. […] Target proteins were detected with Immobilon Western Chemiluminescent HRP Substrate (Millipore Corporation)."}, "[3]": {"tested_on": "SR-A silenced cells", "assay": "Phagocytosis and ROS in SR-A silenced cells", "type": "cell-based"}, "[4]": {"tested_on": "gemcitabine-induced neutropenia", "conditions": "cited from earlier work"}},
  "data": [
    {"smiles": "CCCCC/C=C\\C/C=C\\CCCCCCCC(=O)OC(COC(C)=O)COC(=O)CCCCCCCCCCCCCCC", "note": "(racemic) [PLAG, 1-palmitoyl-2-linoleoyl-3-acetylglycerol]", "values": [
      {"measurement": "cytosolic calcium of dHL-60 cells", "setting": "[1]; PLAG 100 μg/mL, ionomycin 5 μM", "value": "increased"},
      {"measurement": "intracellular calcium levels, co-treatment with imiquimod", "setting": "[1]; vs imiquimod alone, extracellular calcium-free and containing condition", "value": "significantly increased"},
      {"measurement": "MSU-induced phosphorylation of RIPK3 and MLKL", "setting": "[2]; PLAG 100 μg/mL, time course", "value": "accelerated"},
      {"measurement": "MSU-induced phosphorylation of RIPK1 and RIPK3", "setting": "[2]; PLAG 1, 10, 100 μg/mL, dose-dependent", "value": "modulated"},
      {"measurement": "PAMP molecules-induced intracellular ROS", "setting": "[3]; SR-A silenced cells", "value": "does not increase"},
      {"measurement": "enhanced phagocytosis by PLAG", "setting": "[3]; knockdown of SR-A", "value": "does not show the enhanced phagocytosis"},
      {"measurement": "gemcitabine-induced neutropenia", "setting": "[4]; Jeong et al., 2019", "value": "attenu¬ated the neutropenia"},
      {"measurement": "anti-cancer effect of gemcitabine", "setting": "[4]; athymic nude mice implanted with a human myeloma cell line", "value": "did not interfere"}
    ]}
  ]
}
